This is an account of results in patent publication US10421765B2, “Tetrahydropyrido[4,3-d]pyrimidine inhibitors of ATR kinase” (Board of Regents, The University of Texas System, priority 2017, dated 2019).

Read-outs that look alike come from different tables or passages of the source.

The target of one experiment is ATR/ATRIP complex (Homo sapiens (Human), UniProt Q13535). In words: ATR/ATRIP enzymatic assay (Caliper-based). The format is biochemical. The note with it: FAM-labeled RAD17 peptide, ATP. The protocol: Human full-length FLAG-TEV-ATR and His6-ATRIP were co-expressed in HEK293 cells. The cell pellet (20 g) was harvested and lysed in 100 mL of lysis buffer (20 mM Tris-HCl pH 7.5 at room temperature, 137 mM NaCl, 10% glycerol, 1 mM DTT, 1% (v/v) Tween-20, 0.1% (v/v) NP-40, complete protease inhibitor cocktail tablets, phosphatase inhibitor cocktail tablets, 2 mM MgCl2, 0.2 mM EDTA, and 1 mM ATP). After sonication and centrifugation, the supernatant was incubated at 4° C. for 3 hours with 1 mL of anti-FLAG resin (Sigma catalog #A2220) that had been pre-equilibrated in buffer A (20 mM Tris-HCl pH 7.5 at room temperature, 137 mM NaCl, 10% glycerol, 1 mM DTT, 2 mM MgCl2, and 0.2 mM EDTA). The sample was loaded into a column, and then washed with buffer A three times. Protein was subsequently eluted with 2 ml of buffer B (buffer A+200 μg/ml 3×FLAG peptide).
Chain of ATR/ATRIP complex (Q13535 whole entry): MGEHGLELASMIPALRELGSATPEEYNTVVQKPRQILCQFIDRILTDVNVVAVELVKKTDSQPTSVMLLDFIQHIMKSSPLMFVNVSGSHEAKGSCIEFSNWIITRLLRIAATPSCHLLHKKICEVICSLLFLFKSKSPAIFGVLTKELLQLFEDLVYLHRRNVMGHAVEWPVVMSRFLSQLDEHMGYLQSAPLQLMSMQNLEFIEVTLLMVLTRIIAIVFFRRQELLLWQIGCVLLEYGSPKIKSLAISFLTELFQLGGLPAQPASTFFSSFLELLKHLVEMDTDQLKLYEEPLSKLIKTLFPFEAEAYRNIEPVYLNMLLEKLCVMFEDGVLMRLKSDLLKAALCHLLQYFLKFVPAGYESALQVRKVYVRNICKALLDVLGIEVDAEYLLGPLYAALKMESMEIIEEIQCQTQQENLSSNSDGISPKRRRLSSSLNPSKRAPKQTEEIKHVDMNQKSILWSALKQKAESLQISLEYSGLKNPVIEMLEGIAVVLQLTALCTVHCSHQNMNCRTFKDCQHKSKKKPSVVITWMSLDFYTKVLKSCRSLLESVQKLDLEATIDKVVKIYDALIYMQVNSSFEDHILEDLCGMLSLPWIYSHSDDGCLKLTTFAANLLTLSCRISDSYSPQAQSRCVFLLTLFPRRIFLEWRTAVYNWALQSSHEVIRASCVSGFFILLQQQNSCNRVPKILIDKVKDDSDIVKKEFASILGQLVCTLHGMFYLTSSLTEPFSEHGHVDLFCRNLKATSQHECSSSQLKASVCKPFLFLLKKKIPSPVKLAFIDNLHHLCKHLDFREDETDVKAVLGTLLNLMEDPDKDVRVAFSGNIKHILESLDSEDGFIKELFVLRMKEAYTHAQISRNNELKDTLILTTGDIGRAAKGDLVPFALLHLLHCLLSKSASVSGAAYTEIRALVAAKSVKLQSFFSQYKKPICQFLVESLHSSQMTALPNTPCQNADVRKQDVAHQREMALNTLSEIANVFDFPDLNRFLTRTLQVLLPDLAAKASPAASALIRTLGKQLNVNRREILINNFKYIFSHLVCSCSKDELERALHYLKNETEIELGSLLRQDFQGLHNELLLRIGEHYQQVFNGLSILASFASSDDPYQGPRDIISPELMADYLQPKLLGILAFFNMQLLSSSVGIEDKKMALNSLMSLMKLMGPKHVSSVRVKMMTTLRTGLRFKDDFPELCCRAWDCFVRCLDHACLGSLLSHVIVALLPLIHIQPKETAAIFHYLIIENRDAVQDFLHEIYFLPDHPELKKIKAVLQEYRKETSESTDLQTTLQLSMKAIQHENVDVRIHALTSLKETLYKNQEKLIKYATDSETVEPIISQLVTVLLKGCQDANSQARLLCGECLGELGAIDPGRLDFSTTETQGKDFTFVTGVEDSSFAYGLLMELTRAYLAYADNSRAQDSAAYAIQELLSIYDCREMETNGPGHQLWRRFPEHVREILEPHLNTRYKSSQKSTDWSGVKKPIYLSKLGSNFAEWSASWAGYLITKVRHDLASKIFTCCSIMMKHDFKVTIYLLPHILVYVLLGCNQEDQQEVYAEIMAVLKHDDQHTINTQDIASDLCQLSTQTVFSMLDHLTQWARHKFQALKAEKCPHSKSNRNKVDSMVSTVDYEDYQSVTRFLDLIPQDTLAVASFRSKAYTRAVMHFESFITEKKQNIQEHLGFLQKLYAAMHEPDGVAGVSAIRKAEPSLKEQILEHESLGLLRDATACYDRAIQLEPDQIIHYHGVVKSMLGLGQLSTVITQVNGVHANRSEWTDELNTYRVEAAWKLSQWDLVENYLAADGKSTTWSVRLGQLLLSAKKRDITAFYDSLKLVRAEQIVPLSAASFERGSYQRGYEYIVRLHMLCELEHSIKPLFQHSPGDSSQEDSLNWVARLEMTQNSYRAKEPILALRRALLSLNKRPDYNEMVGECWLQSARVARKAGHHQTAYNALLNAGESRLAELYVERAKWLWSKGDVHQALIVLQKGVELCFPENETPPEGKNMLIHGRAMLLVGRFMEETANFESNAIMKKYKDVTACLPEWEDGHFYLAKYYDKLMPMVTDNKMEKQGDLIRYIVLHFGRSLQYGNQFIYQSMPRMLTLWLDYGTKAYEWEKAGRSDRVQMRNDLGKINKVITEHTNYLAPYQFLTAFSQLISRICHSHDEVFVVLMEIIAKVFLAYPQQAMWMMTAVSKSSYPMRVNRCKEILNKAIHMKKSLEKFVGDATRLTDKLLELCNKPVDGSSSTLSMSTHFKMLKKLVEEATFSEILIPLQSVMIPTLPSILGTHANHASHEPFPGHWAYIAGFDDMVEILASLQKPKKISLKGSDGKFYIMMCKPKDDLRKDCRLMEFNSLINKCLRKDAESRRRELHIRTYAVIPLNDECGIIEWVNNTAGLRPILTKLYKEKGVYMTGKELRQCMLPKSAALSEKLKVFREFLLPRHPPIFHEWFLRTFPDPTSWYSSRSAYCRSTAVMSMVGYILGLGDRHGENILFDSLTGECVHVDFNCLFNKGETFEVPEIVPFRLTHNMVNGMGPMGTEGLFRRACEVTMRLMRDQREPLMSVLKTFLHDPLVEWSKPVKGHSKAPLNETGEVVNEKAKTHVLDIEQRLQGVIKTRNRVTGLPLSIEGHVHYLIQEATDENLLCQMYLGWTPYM
Chain of ATR/ATRIP complex (Q8WXE1 whole entry partner): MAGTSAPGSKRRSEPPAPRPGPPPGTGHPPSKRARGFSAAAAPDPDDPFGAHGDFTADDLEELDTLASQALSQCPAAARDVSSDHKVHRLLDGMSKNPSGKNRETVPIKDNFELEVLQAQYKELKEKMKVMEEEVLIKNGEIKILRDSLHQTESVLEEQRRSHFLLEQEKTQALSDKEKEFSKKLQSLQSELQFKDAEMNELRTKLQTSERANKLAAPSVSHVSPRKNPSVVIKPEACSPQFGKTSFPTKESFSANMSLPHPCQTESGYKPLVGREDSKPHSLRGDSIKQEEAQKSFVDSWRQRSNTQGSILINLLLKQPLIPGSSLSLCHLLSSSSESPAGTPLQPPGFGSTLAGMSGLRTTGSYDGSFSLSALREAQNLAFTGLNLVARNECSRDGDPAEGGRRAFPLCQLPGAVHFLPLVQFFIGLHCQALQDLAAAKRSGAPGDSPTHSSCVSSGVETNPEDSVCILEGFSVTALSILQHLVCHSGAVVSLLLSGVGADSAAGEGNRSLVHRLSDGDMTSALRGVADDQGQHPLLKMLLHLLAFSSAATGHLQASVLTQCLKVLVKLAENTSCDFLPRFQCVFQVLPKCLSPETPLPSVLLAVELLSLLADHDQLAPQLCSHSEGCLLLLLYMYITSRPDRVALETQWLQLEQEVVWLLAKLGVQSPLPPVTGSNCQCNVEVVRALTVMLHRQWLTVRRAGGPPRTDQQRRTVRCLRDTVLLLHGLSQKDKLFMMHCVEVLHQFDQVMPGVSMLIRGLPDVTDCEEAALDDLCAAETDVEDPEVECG
The ability of new chemical matter to inhibit the ATR catalytic activity in this ATR/ATRIP complex was assessed using a Caliper-based assay. A 2x enzyme solution (i.e., 4 nM enzyme) was prepared using 1× Kinase Reaction Buffer (25 mM HEPES pH 8, 0.0055% Brij-35, 10 mM MnCl2, and 1 mM DTT). A 2x peptide solution was then prepared consisting of 10 uM FAM-labeled RAD17 peptide (GL Biochem, catalog #524315) in 1× Kinase Reaction Buffer supplemented with 2 μM ATP. 10 μL of the 2× enzyme solution was transferred to an assay plate containing 60 nL of test compound (from a 3× serial dilution) in 100% DMSO. Following a 30 minute incubation at 28° C., 10 μL of the 2× peptide solution was then transferred to the same assay plate. The reaction was allowed to incubate at 28° C. for 6 hours. After adding […] of stop buffer (100 mM HEPES pH 7.5, 0.015% Brij-35, 0.2% Coating-3 Reagent (PerkinElmer, catalog #PN760050), and 50 mM EDTA), data were collected on a Caliper instrument. Conversion values were converted to inhibition values via the following equation: % inhibition=(max−conversion)/(max−min)*100, whereby “max” corresponds to the DMSO control and “min” corresponds to the low control. IC50 values were calculated using the following equation in XLFit: Y=Bottom+(Top−Bottom)/1+(IC50/X)^HillSlope).

Experiment [1] concerns ATR-driven phosphorylation of Chk1 kinase at Serine 345 in HT-29 colorectal adenocarcinoma cells. In words: pCHK1 cellular assay (CHK1 p-Ser345 AlphaScreen SureFire). The class given is cell-based. The note with it: 4-nitroquinoline N-oxide 12 uM, read-out: Cell IC50 (pCHK1 IC50 values). The protocol:
Inhibitors of ATR kinase are effective at inhibiting the ATR-driven phosphorylation of the downstream target Chk1 kinase at Serine 345, following the addition of 4-nitroquinoline N-oxide, a chemical used to induce DNA damage. Cellular IC50 for the inhibitors of ATR described herein were measured in HT-29 colorectal adenocarcinoma cells. HT-29 cells were routinely maintained in McCoy's 5A media (ATCC Catalog #30-2007) supplemented with 10% fetal bovine serum (Sigma Catalog #F2442) and 1× Penicillin-Streptomycin (Gibco Catalog #15140-122) using a humidified incubator (37° C., 5% CO2, and ambient O2).
In preparation for the CHK1 (p-Ser345) ALPHASCREEN® SUREFIRE® assay, cells were harvested and resuspended in McCoy's 5A media supplemented with 10% fetal bovine serum and 1× Penicillin-Streptomycin. Cells were seeded onto a 384-well black CELLSTAR® Tissue Culture Plate (VWR Catalog #89085-314) at a density of 13,000 cells/well in a volume of 40 uL. The microplate was incubated overnight (approximately 20 hours) at 37° C. with 5% CO2 and ambient O2. Stock solutions of the test compounds were prepared in 100% DMSO (Sigma, Catalog #D2650) and serially diluted 1:3 using 100% DMSO. Compounds were additionally diluted 1:33 in culture medium, and 10 ul/well were transferred to the tissue culture plate. Following the compound addition the microplate was incubated at 37° C. for 90 minutes. 10 uL of 4-nitroquinoline N-oxide (Sigma Aldrich Catalog #N8141-1G) diluted in media (final concentration 12 uM) were added to the tissue culture plate followed by a 120 minute incubation at 37° C. The cells were then washed with PBS and lysed using 10 uL/well SUREFIRE® Kit lysis buffer diluted to 1× in water (PerkinElmer Catalog #TGRCHK1S50K), with mixing on an orbital shaker at 500 rpm for 20 min at RT. Lysates were frozen at −20° C. overnight.
4 uL/well of lysate was then transferred from the tissue culture plate to a 384-well, white, low volume, PROXIPLATE™ (PerkinElmer Catalog #600828). 5 uL/well of the acceptor bead solution, prepared by diluting SUREFIRE® Kit activation buffer (PerkinElmer Catalog #TGRCHK1S50K) and ALPHASCREEN® Protein A acceptor beads (PerkinElmer Catalog #6760617R) in SUREFIRE® Kit reaction buffer (PerkinElmer Catalog #TGRCHK1S50K), were added to the lysates under subdued light and incubated at room temperature for 120 min. 2 uL/well of the donor bead solution, prepared by diluting ALPHASCREEN® Streptavidin donor beads (PerkinElmer Catalog #6760617R) in SUREFIRE® Kit dilution buffer (PerkinElmer Catalog #TGRCHK1S50K), were added under subdued light and incubated at room temperature for an addition 120 minutes. The pCHK1 ALPHASCREEN® signal was measured using an ENVISION® plate reader (PerkinElmer). IC50 values were calculated using a four-parameter logistic curve fit using Genedata Screener software. Percent of control for each compound concentration was calculated by the following formula: 100*(Compound−Min)/(Max−Min) where “Max” is the high control, DMSO, and “Min” is the low control, 5 uM ATR inhibitor.

[2] abbreviates: read-out: ATR/ATRIP Enzyme IC50.
The mark [3] stands for this setting: Homo sapiens, HT-29, HT-29 cells.

On to `C[C@@H]1Cc2ncnc(N3CC(NS(=O)(=O)C4CC4)C3)c2CN1c1ccnc2[nH]ccc12` [Example 85, (R)-N-(1-(7-methyl-6-(1H-pyrrolo[2,3-b]-pyridin-4-yl)-5,6,7,8-tetrahydropyrido[4,3-d]-pyrimidin-4-yl)azetidin-3-yl)cyclopropane-sulfonamide], for which the IC50 is 113 nM on ATR/ATRIP complex (setting [2]) and 83 nM in experiment [1] (setting [3]).

Regarding `C[C@@H]1Cc2ncnc(C3CCN(S(C)(=O)=O)CC3)c2CN1c1ccnc2[nH]ccc12` [Example 6, (R)-7-Methyl-4-(1-(methylsulfonyl)piperidin-4-yl)-6-(1H-pyrrolo[2,3-b]pyridin-4-yl)-5,6,7,8-tetrahydropyrido[4,3-d]pyrimidine bis(trifluoroacetate)], the results for the IC50 (on ATR/ATRIP complex (setting [2]); in experiment [1] (setting [3])) were 499 nM and 52 nM, respectively.

For `C[C@@H]1Cc2ncnc(C3CCN(S(C)(=O)=O)C3)c2CN1c1ccnc2[nH]ccc12` (stereo partly drawn) [Example 17, 1-methanesulfonyl-3-[(7R)-7-methyl-6-{1H-pyrrolo[2,3-b]pyridin-4-yl}-5H,6H,7H,8H-pyrido[4,3-d]pyrimdin-4-yl]pyrrolidine], the IC50 is 936 nM at ATR/ATRIP complex (setting [2]) and 362 nM in experiment [1] (setting [3]).

Regarding `C[C@@H]1Cc2ncnc(C3=CCC(NS(C)(=O)=O)CC3)c2CN1c1cc(Cl)nc2[nH]ccc12` (stereo partly drawn) [Example 73, N-(4-((R)-6-(6-chloro-1H-pyrrolo[2,3-b]pyridin-4-yl)-7-methyl-5,6,7,8-tetrahydropyrido[4,3-d]-pyrimidin-4-yl)cyclohex-3-en-1-yl)methane-sulfonamide], the IC50 at ATR/ATRIP complex (setting [2]) stood at 111 nM; in experiment [1] (setting [3]), 18 nM.

Turning to `C[C@@H]1Cc2ncnc(C3CCCN(S(C)(=O)=O)C3)c2CN1c1ccnc2[nH]ccc12` (stereo partly drawn) [Example 16, 1-methanesulfonyl-3-[(7R)-7-methyl-6-{1H-pyrrolo[2,3-b]pyridin-4-yl}-5H,6H,7H,8H-pyrido[4,3-d]pyrimidin-4-yl]piperidine], the IC50 is 3570 nM on ATR/ATRIP complex (setting [2]) and 140 nM in experiment [1] (setting [3]).

Take `C[C@@H]1Cc2ncnc(C3CCN(S(C)(=O)=O)CC3)c2CN1c1cc(OC2CCC2)nc2[nH]ccc12` [Example 99, (R)-6-(6-cyclobutoxy-1H-pyrrolo[2,3-b]pyridin-4-yl)-7-methyl-4-(1-(methylsulfonyl)piperidin-4-yl)-5,6,7,8-tetrahydro-pyrido[4,3-d]pyrimidine]: the figures for the IC50 (at ATR/ATRIP complex (setting [2]); in experiment [1] (setting [3])) were 75 nM and 9 nM, respectively.

For `C[C@@H]1Cc2ncnc(N3C[C@H]4CC[C@@H](C3)C4NC(=O)CC(F)(F)F)c2CN1c1cc(Cl)nc2[nH]ccc12` (stereo partly drawn) [Example 26, N-{3-[(7R)-6-{6-chloro-1H-pyrrolo[2,3-b]pyridin-4-yl}-7-methyl-5H,6H,7H,8H-pyrido[4,3-d]pyrimidin-4-yl]-3-aza-bicyclo[3.2.1]octan-8-yl}-3,3-trifluoro-propanamide], the IC50 is 1000 to 10000 nM on ATR/ATRIP complex (estimated range, read-out: ATR/ATRIP Enzyme IC50 (estimated class)) and 88 nM in experiment [1] (setting [3]).

In the case of `CC1Cc2ncnc(C3CCN(S(C)(=O)=O)CC3)c2CN1c1ccnc2[nH]ccc12` (stereo not shown) [Example 4, 7-Methyl-4-(1-(methylsulfonyl)piperidin-4-yl)-6-(1H-pyrrolo[2,3-b]pyridin-4-yl)-5,6,7,8-tetrahydropyrido[4,3-d]pyrimidine bis(trifluoroacetate)], the IC50 at ATR/ATRIP complex (setting [2]) was 833 nM; in experiment [1] (setting [3]), 157 nM.

As for `CNC(=O)[C@@H]1CCCN(c2ncnc3c2CN(c2cc(Cl)nc4[nH]ccc24)[C@H](C)C3)C1` [Example 44, (R)-1-((R)-6-(6-Chloro-1H-pyrrolo[2,3-b]pyridin-4-yl)-7-methyl-5,6,7,8-tetrahydropyrido[4,3-d]pyrimidin-4-yl)-N-methylpiperidine-3-carboxamide], the IC50 at ATR/ATRIP complex (setting [2]) was 1040 nM; in experiment [1] (setting [3]), 92 nM.

As for `C[C@@H]1Cc2ncnc([C@H]3CCCN(S(C)(=O)=O)C3)c2CN1c1ccnc2[nH]ccc12` [Example 50b, (R)-7-methyl-4-((S)-1-(methylsulfonyl)piperidin-3-yl)-6-(1H-pyrrolo[2,3-b]pyridin-4-yl)-5,6,7,8-tetrahydropyrido[4,3-d]pyrimidine], the IC50 was determined as 4790 nM on ATR/ATRIP complex (setting [2]) and 579 nM in experiment [1] (setting [3]).

Take `COC(=O)[C@@H]1CCCN(c2ncnc3c2CN(c2cc(Cl)nc4[nH]ccc24)[C@H](C)C3)C1` [Example 62, Methyl (R)-1-((R)-6-(6-chloro-1H-pyrrolo[2,3-b]pyridin-4-yl)-7-methyl-5,6,7,8-tetrahydropyrido-[4,3-d]pyrimidin-4-yl)-piperidine-3-carboxylate]: the IC50 was 253 nM at ATR/ATRIP complex (setting [2]) and 138 nM in experiment [1] (setting [3]).

As to `C[C@@H]1Cc2ncnc([C@H]3CCN(S(C)(=O)=O)C3)c2CN1c1ccnc2[nH]ccc12` [Example 57b, (R)-7-methyl-4-((S)-1-(methylsulfonyl)pyrrolidin-3-yl)-6-(1H-pyrrolo[2,3b]-pyridin-4-yl)-5,6,7,8-tetrahydropyrido[4,3-d]pyrimidine], the IC50 at ATR/ATRIP complex (setting [2]) was 1470 nM; in experiment [1] (HT-29 cells) it was 394 nM.

With `C[C@@H]1Cc2ncnc(C3=C[C@@H]4CC[C@H](C3)N4S(C)(=O)=O)c2CN1c1cc(Cl)nc2[nH]ccc12` [Example 60, (R)-6-(6-chloro-1H-pyrrolo[2,3-b]pyridin-4-yl)-7-methyl-4-((1S,5R)-8-(methylsulfonyl)-8-azabicyclo[3.2.1]oct-2-en-3-yl)-5,6,7,8-tetra-hydropyrido[4,3-d]-pyrimidine], the results for the IC50 (on ATR/ATRIP complex (setting [2]); in experiment [1] (setting [3])) were 66 nM and 22 nM, respectively.

For the compound `C[C@@H]1Cc2ncnc(N3CCCC(S(C)(=O)=O)C3)c2CN1c1ccnc2[nH]ccc12` (stereo partly drawn) [Example 18, 3-methanesulfonyl-1-[(7R)-7-methyl-6-{1H-pyrrolo[2,3-b]pyridin-4-yl}-5H,6H,7H,8H-pyrido[4,3-d]pyrimidin-4-yl]piperidine], the IC50 at ATR/ATRIP complex (setting [2]) came out at 420 nM; in experiment [1] (setting [3]) it was 133 nM.
